# Test results reported in patent publication US20080009512A1, “Tetrahydroquinolones and Aza-Analogues Thereof for Use as Dpp-IV Inhibitors in the Treatment of Diabetes” (ASTRAZENECA AB, priority 2004, published 2008).
# Target: T1, DPP-IV activity from human colonic carcinoma cell extracts (Caco-2) (Homo sapiens, UniProt P27487)
# T1 construct: Cell extract is prepared from cells solubilized in 10 mM Tris HCI, 0.15 M NaCI, 0.04 t.i.u.aprotinin, 0.5% nonidet-P40; host or cells: Caco-2, differentiated to induce DPP-IV expression; detergent-solubilized extract
# Test: caco-2 DPP-IV Assay (CaCo2 extract, fluorescence, H-Gly-Pro-AMC substrate)
# Format: biochemical
# Settings: solubilized Caco-2 protein extract; 11-point dose-response curves, 4 parameter logistic function
# Description: As indicated above, all of the compounds, and their corresponding pharmaceutically-acceptable salts, are useful in inhibiting DPP-IV. […] The human colonic carcinoma cell line Caco-2 was obtained from the American Type Culture Collection (ATCC HTB 37). Differentiation of the cells to induce DPP-IV expression was accomplished as described by Reisher, et al. (Proc. Natl. Acad. Sci., Vol. 90, pgs. 5757-5761 (1993)). Cell extract is prepared from cells solubilized in 10 mM Tris HCI, 0.15 M NaCI, 0.04 t.i.u.aprotinin, 0.5% nonidet-P40, pH 8.0, which is centrifuged at 35,000 g for 30 min at 4° C. to remove cell debris.
# The […] assay is conducted by adding 20 μg solubilized Caco-2 protein or purified porcine kidney DPP-IV, in a final volume of 10 ul in assay buffer (25 mM Tris HCl pH 7.4, 140 mM NaCl, 10 mM KCl, 0.1% Triton-x-100) to microtiter plate wells. […] The endpoint is determined by measuring absorbance at 405 nm in a Labsystems microtiter plate reader.
# Activity of CaCo2 extract is also measured employing a modified version of the assay described in Kubota, et al. (Clin. Exp. Immunol., Vol. 89, pgs. 192-197 (1992)). […] After the 10 min. reaction, florescence is measured using a Tecan Ultra fluorimeter (Excitation 360 nm Emission 465 nm). […]
# T1 sequence (P27487 whole entry): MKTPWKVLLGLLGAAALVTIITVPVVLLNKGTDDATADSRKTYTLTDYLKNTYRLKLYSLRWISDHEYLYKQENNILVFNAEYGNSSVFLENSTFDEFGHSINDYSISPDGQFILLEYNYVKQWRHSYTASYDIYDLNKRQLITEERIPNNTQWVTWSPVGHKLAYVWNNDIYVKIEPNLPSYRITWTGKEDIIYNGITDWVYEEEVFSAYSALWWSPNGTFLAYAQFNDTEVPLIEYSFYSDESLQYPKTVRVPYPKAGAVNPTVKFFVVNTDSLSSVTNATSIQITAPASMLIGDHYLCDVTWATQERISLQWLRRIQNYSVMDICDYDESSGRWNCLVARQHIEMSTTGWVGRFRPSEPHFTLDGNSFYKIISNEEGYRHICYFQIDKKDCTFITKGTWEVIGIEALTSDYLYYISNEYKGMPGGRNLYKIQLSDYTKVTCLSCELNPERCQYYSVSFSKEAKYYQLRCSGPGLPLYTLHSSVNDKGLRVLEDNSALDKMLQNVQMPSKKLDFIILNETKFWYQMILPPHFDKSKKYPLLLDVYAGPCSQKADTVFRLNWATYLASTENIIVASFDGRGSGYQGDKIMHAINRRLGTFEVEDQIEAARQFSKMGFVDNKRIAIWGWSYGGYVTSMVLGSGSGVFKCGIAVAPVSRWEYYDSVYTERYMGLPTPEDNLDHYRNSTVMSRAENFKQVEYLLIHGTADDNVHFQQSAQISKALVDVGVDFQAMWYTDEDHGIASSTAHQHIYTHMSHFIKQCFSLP
structure (smiles),measurement,value
"N[C@@H](CC(=O)NC1Cc2ccccc2NC1=O)Cc1ccccc1F (stereo partly drawn) [Example 1, (3R)-3-Amino-4-(2-fluorophenyl)-N-(2-oxo-1,2,3,4-tetrahydroquinolin-3-yl)butanamide]",IC50,580 nM
